This passage reports IC50 results from publication PMC3492849 (The Febs Journal, 2012).

Chain of PKD1L3/PKD2L1 (A2A259 whole entry): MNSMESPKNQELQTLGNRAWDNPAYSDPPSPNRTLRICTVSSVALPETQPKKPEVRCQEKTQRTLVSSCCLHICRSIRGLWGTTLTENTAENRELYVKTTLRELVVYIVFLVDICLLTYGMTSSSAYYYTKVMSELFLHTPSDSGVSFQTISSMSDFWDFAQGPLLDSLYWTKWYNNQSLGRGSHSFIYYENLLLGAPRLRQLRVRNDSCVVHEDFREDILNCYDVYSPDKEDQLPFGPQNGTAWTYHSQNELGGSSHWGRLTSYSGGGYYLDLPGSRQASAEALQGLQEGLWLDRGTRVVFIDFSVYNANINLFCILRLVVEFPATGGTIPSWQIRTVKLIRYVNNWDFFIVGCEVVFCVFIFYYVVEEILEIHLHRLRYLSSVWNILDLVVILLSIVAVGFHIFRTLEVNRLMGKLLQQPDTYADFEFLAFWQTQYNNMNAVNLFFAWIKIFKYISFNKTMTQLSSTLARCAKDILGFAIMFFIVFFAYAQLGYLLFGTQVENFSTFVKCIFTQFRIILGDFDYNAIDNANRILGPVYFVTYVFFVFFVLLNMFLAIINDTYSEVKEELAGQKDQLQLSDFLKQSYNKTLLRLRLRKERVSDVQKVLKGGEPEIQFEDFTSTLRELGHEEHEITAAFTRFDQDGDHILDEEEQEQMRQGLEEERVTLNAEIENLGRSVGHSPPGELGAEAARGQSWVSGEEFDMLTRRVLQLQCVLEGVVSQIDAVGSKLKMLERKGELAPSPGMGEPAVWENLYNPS
Chain of PKD1L3/PKD2L1 (Q2EG98 21-2151): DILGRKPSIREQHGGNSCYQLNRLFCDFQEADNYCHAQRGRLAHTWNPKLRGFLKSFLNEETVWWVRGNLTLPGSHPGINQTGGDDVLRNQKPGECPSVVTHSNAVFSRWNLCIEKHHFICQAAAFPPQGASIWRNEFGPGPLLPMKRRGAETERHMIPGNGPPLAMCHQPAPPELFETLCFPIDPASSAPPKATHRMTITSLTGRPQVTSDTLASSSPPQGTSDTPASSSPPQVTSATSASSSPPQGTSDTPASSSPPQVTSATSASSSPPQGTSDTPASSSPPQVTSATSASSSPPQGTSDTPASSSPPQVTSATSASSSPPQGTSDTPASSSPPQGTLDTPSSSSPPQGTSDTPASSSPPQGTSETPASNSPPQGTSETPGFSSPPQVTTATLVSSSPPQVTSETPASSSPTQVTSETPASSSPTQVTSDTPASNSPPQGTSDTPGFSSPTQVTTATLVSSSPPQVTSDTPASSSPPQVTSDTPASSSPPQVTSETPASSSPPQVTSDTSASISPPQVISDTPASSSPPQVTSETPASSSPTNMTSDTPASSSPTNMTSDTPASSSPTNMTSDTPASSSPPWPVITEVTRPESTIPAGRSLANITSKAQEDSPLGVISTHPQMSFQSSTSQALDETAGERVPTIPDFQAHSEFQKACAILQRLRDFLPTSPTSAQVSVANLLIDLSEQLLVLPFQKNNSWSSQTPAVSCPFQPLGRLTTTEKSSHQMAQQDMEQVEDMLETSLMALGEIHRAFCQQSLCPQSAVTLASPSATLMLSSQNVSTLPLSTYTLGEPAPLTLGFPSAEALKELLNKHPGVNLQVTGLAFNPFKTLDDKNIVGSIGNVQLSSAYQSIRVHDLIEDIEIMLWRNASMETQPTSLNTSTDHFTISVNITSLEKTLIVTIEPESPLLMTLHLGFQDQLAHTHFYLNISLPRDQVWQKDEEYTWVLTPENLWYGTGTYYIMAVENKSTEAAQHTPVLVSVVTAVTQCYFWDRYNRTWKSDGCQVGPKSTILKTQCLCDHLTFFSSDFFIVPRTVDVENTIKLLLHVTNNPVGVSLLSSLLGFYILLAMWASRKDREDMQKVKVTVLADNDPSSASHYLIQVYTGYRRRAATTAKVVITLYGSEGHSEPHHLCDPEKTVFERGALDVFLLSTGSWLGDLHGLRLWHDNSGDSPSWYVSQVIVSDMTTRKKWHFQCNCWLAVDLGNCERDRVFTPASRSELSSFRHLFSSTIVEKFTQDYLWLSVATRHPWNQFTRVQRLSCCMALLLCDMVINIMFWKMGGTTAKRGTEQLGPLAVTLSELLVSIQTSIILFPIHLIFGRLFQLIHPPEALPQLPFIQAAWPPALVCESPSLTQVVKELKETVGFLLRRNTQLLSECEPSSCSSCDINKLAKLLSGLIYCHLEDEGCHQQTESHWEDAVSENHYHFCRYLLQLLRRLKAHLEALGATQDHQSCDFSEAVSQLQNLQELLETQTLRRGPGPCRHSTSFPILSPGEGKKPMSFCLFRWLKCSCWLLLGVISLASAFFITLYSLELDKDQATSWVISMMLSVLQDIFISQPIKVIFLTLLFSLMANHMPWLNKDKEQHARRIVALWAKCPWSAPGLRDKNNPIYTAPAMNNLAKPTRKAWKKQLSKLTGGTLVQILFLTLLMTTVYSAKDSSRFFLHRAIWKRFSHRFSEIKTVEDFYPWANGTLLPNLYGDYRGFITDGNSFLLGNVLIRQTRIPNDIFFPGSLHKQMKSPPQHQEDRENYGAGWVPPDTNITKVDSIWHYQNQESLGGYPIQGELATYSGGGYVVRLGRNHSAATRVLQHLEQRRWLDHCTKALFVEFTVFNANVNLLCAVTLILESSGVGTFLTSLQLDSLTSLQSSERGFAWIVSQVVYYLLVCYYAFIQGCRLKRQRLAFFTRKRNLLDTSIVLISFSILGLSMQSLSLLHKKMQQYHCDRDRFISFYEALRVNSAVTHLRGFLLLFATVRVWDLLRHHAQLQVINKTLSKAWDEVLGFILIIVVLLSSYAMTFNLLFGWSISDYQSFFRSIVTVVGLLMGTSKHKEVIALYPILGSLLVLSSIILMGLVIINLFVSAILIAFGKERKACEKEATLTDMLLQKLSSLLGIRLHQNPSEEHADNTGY

The assay concerns the target PKD1L3/PKD2L1 (Mus musculus, UniProt A2A259+Q2EG98). As to the kind of experiment: Fura-2 Ca2+ imaging, neutralization method. The format is cell-based.
The IC50 is the midpoint of a concentration-inhibition curve. Consider `CCCCC[C@H](O)CC(=O)CCc1ccc(O)c(OC)c1` [6-gingerol], for which the IC50 came out at 85.9 ± 34.7 µM. The result for `COc1ccc(CCCOC(Cn2ccnc2)c2ccc(OC)cc2)cc1` (stereo not shown) [SKF96365] reads 48.1 ± 10.8 µM; that for `COc1cc(CNC(=O)CCCC/C=C/C(C)C)ccc1O` [capsaicin], 32.5 ± 10.2 µM. `COc1cc(CNC(=O)CCCCCCC(C)C)ccc1O` [dihydrocapsaicin] returned an IC50 of 55 ± 14.2 µM.
